One assay addresses DRB1*04:01 (Homo sapiens, UniProt P01903+P01911, A100K/A169T/F76Y/I96L/K127E/L162R/M171V/N62H/P40V/Q125Y/R42H/S133A/S149N/S66Y/V115G/V209L/W38E). Description: Peptide binding to HLA-DR allele, competition assay. An excerpt:
(§1) Peptide binding to MHC-II requires anchor residues in certain positions and thus can be predicted using computer algorithms. Affinity can be measured experimentally using a competition assay (1). Both are excellent screening tools. However, affinity must be measured separately for each MHC-II allele. Humans express molecules encoded in four different MHC-II loci, denominated HLA-DRB1, DRB3/4/5, DP and DQ. Allelic variation is large, and most people are heterozygous at each locus, thus expressing up to 8 relevant MHC-II alleles. CD4 T cell responses strictly require that the antigenic peptide binds to the relevant MHC-II.
(§2) To identify peptides that could potentially be used in human patients, 30 peptides were screened for binding to 26 HLA alleles by competition assay.

A further assay addresses DRB4*01:01 (Homo sapiens, UniProt P01903+P13762, G164S). The description is as above.
Text: as §1, §2

A further assay has as its target DRB1*09:01 (Homo sapiens, UniProt P01903+P01911, A100R/A103E/D57H/D86V/F55Y/F60I/F76Y/I96F/K127E/L162R/M171V/P40D/Q125H/Q99R/R33Q/R42F/S133A/S66N/T210M/V115G/W38K/Y107V/Y59G/Y89S). Described as above.
Text: as §1, §2

The next assay concerns the target DQB1*05:01. Description: Peptide binding to HLA-DQ allele, competition assay. Details: species or system human.
Text: as §1, §2

The target in a further assay is DQB1*06:02. The assay is described as above. Details: species or system human.
Text: as §1, §2

A further assay addresses T1, DPB1*04:01 (Homo sapiens, UniProt P04440).
T1 sequence (P04440 30-258): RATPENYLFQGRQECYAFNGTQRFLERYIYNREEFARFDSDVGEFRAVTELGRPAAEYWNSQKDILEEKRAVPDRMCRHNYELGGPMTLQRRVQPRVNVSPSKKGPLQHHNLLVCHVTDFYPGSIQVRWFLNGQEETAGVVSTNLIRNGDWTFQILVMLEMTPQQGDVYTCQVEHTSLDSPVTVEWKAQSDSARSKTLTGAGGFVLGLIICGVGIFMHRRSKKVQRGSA
T1 sequence (P20036 29-260 partner): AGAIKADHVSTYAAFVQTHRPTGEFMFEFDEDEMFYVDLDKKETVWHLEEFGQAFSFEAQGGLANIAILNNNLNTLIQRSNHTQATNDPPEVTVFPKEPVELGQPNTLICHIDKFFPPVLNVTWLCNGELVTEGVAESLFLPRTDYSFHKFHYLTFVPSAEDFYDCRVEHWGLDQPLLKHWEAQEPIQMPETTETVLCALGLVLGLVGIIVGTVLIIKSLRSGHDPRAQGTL
Kind of assay: Peptide binding to HLA-DP allele, competition assay.
Text: as §1, §2

The target of another assay is DPB1*14:01. The description is as above. Details: species or system human.
Text: as §1, §2

In the next assay the target is DPB1*03:01. The description is as above. Details: species or system human.
Text: as §1, §2

In another assay the target is DPB1*04:02. The assay is described as above. Details: species or system human.
Text: as §1, §2

Another assay deals with DPB1*05:01. The description is as above. Details: species or system human.
Text: as §1, §2

Another assay deals with DPB1*02:01. Described as above. Further details: species or system human.
Text: as §1, §2

A further assay concerns the target DRB3*02:02 (Homo sapiens, UniProt P01903+P79483, A212P/D57E/F66Y/L67A/R103Q/R218S/R40L/S89Y/T80R/V86D/Y55F/Y59H). Kind of assay: Peptide binding to HLA-DR allele, competition assay.
Text: as §1, §2

A further assay has as its target DRB1*15:01 (Homo sapiens, UniProt P01903+P01911). Described as above.
Text: as §1, §2

The target in the next assay is DRB5*01:01 (Homo sapiens, UniProt P01903+Q30154). The assay is described as above.
Text: as §1, §2

In another assay the target is HLA-DRB1*01:01 (Homo sapiens, UniProt P01903+P01911, A100R/D57E/F55L/F60I/F76Y/I96L/L162R/M171V/P40L/Q125E/R42F/V115G/Y59C). The assay is described as above.
Text: as §1, §2

Another assay concerns the target DRB1*13:02 (Homo sapiens, UniProt P01903+P01911, A100E/A169T/K41T/L162R/M171V/P40S/Q125H/Q178H/Q39Y/Q99D/R42S/S66N/T262R/V115G/W38E/Y61H). The assay is described as above.
Text: as §1, §2

In another assay the target is DRB1*11:01 (Homo sapiens, UniProt P01903+P01911, A100R/A169T/A87E/I96F/K41T/L162R/M171V/P40S/Q125H/Q178H/Q39Y/Q99D/R42S/S66Y/T262R/V115G/W38E). The assay is described as above.
Text: as §1, §2

In another assay the test system is atherosclerotic plaque. Kind of assay: Peptide immunization in atherosclerosis model (ApoE−/− mice on western diet). The note with it: immunization in CFA and 4×IFA. It is filed as in vivo, mouse.

Consider ten molecules from US12448433B2, “Human ApoB100 epitopes, methods and uses for modulating inflammatory responses, and treating adverse cardiovascular events, disease and atherosclerosis” (LA JOLLA INSTITUTE FOR ALLERGY AND IMMUNOLOGY, priority 2015, dated 2025).

Usually IC50 stands for the point on the concentration scale where inhibition reaches its midpoint.

As to `CSCC[C@H](NC(=O)[C@H](CC(C)C)NC(=O)[C@H](Cc1ccc(O)cc1)NC(=O)[C@H](C)NC(=O)[C@H](C)NC(=O)[C@H](CC(C)C)NC(=O)[C@H](CCCNC(=N)N)NC(=O)[C@H](CCCCN)NC(=O)[C@@H](N)CC(=O)O)C(=O)N[C@@H](CC(C)C)C(=O)N[C@@H](CCSC)C(=O)N[C@@H](CCCNC(=N)N)C(=O)N[C@@H](CO)C(=O)N1CCC[C@H]1C(=O)N[C@@H](CO)C(=O)O` [Peptide 3563.0004], the IC50 stood at 7.1 nM at DRB1*04:01; 12 nM at DRB4*01:01; 74 nM on DRB1*09:01; 53 nM at DQB1*05:01; 13 nM at DQB1*06:02; 372 nM on DPB1*04:01. The IC50 at DPB1*14:01 came to 102 nM; at DPB1*03:01, 26 nM; on DPB1*04:02, 23 nM; at DPB1*05:01, 4.1 nM; on DPB1*02:01, 1680 nM.
Turning to `CC[C@H](C)[C@H](NC(=O)[C@H](CC(C)C)NC(=O)[C@H](CCCCN)NC(=O)[C@H](CO)NC(=O)CNC(=O)[C@@H](N)C(C)C)C(=O)N[C@H](C(=O)N[C@@H](C)C(=O)N[C@@H](CCSC)C(=O)N[C@@H](CO)C(=O)N[C@@H](CO)C(=O)N[C@@H](Cc1c[nH]c2ccccc12)C(=O)N[C@@H](CC(C)C)C(=O)N[C@@H](CCC(N)=O)C(=O)N[C@@H](CCCCN)C(=O)O)C(C)C` [Peptide 3563.0008], the IC50 at DRB3*02:02 is 110 nM; on DQB1*06:02 it was 617 nM; at DPB1*04:01, 89 nM; on DPB1*14:01, 1860 nM; on DPB1*02:01, 128 nM.
Turning to `CC[C@H](C)[C@H](N)C(=O)N[C@@H](CCCCN)C(=O)N[C@@H](Cc1c[nH]cn1)C(=O)N[C@H](C(=O)N[C@@H](Cc1ccc(O)cc1)C(=O)N[C@@H](C)C(=O)N[C@H](C(=O)N[C@@H](CO)C(=O)N[C@@H](CO)C(=O)N[C@@H](C)C(=O)N[C@@H](C)C(=O)N[C@@H](CC(C)C)C(=O)N[C@@H](CO)C(=O)N[C@@H](C)C(=O)N[C@@H](CO)C(=O)O)[C@@H](C)CC)[C@@H](C)CC` [Peptide 3563.0009], the IC50 on DRB1*15:01 amounted to 1.1 nM; on DRB5*01:01, 18 nM; on DQB1*06:02 it was 66 nM; at DPB1*14:01 it was 132 nM; at DPB1*03:01, 90 nM.
With `CSCC[C@H](NC(=O)[C@@H](NC(=O)[C@H](Cc1ccccc1)NC(=O)[C@@H]1CCCN1C(=O)[C@H](C)NC(=O)[C@H](CCSC)NC(=O)[C@@H](NC(=O)[C@H](CO)NC(=O)[C@H](CCCNC(=N)N)NC(=O)[C@H](Cc1ccccc1)NC(=O)[C@@H](NC(=O)[C@H](CC(N)=O)NC(=O)[C@H](CO)NC(=O)[C@H](Cc1ccccc1)NC(=O)[C@@H](N)Cc1c[nH]cn1)C(C)C)C(C)C)[C@@H](C)O)C(=O)O` [Peptide 3563.0010], the IC50 worked out at 5570 nM on DQB1*05:01, 799 nM on DPB1*14:01, 8 nM at DPB1*03:01 and 94 nM on DPB1*05:01.
On to `CC(C)C[C@H](NC(=O)[C@H](CCC(N)=O)NC(=O)[C@H](C)NC(=O)[C@H](CC(N)=O)NC(=O)[C@H](C)NC(=O)[C@H](CCC(N)=O)NC(=O)[C@H](Cc1ccccc1)NC(=O)[C@H](CC(=O)O)NC(=O)[C@H](Cc1ccccc1)NC(=O)[C@H](CC(N)=O)NC(=O)[C@H](CC(C)C)NC(=O)[C@@H](NC(=O)[C@H](CCC(=O)O)NC(=O)[C@@H](N)CC(C)C)C(C)C)C(=O)N[C@@H](CO)C(=O)O` [Peptide 3563.0017], for which the IC50 was found to be 46 nM on HLA-DRB1*01:01; 55 nM at DRB1*04:01; 94 nM on DRB4*01:01; 191 nM on DPB1*04:01; 586 nM on DPB1*04:02; 39400 nM on DPB1*05:01. The IC50 on DPB1*02:01 worked out at 86 nM.
On to `CC[C@H](C)[C@H](NC(=O)[C@H](CCCCN)NC(=O)CN)C(=O)N[C@@H](CC(=O)O)C(=O)N[C@@H](Cc1ccccc1)C(=O)N[C@@H](CC(C)C)C(=O)N[C@@H](CC(N)=O)C(=O)N[C@@H](CC(N)=O)C(=O)N[C@@H](Cc1ccc(O)cc1)C(=O)N[C@@H](C)C(=O)N[C@@H](CC(C)C)C(=O)N[C@@H](Cc1ccccc1)C(=O)N[C@@H](CC(C)C)C(=O)N[C@@H](CO)C(=O)N1CCC[C@H]1C(=O)O` [Peptide 3563.0019], for which the half-maximal inhibitory concentration (IC50) came to 57 nM at DRB5*01:01; 495 nM on DQB1*06:02; 6510 nM on DPB1*14:01; 424 nM on DPB1*05:01; 456 nM at DPB1*02:01.
With `CC(C)C[C@H](NC(=O)CNC(=O)[C@@H](N)CCCNC(=N)N)C(=O)N[C@@H](CCCCN)C(=O)N[C@@H](CC(C)C)C(=O)N[C@@H](C)C(=O)N[C@H](C(=O)N[C@@H](C)C(=O)N[C@@H](CC(C)C)C(=O)N[C@@H](CO)C(=O)N[C@@H](CC(C)C)C(=O)N[C@@H](CO)C(=O)N[C@@H](CC(N)=O)C(=O)N[C@@H](CCCCN)C(=O)N[C@@H](Cc1ccccc1)C(=O)O)[C@@H](C)O` [Peptide 3563.0020], the half-inhibitory concentration (IC50) on HLA-DRB1*01:01 came to 7.1 nM; at DRB1*13:02 it was 1.1 nM; on DRB1*11:01, 1200 nM; at DRB1*09:01, 17 nM; on DQB1*05:01, 2630 nM; at DQB1*06:02, 245 nM. For the same molecule, the IC50 at DPB1*14:01 came out at 183 nM; at DPB1*05:01, 9.8 nM.
Consider `CC[C@H](C)[C@H](NC(=O)[C@H](CC(N)=O)NC(=O)[C@H](CCCCN)NC(=O)[C@H](CC(C)C)NC(=O)[C@H](Cc1ccccc1)NC(=O)[C@H](CCCNC(=N)N)NC(=O)[C@H](CC(C)C)NC(=O)[C@H](Cc1c[nH]cn1)NC(=O)CNC(=O)[C@@H](N)CCC(=O)O)C(=O)N[C@H](C(=O)N[C@@H](CC(C)C)C(=O)N1CCC[C@H]1C(=O)N[C@H](C(=O)N[C@@H](Cc1ccc(O)cc1)C(=O)O)C(C)C)[C@@H](C)CC` [Peptide 3563.0021], for which the IC50 stood at 3.3 nM at DRB3*02:02; 3.3 nM on DRB4*01:01; 6140 nM on DQB1*06:02; 2070 nM on DPB1*14:01; 4610 nM on DPB1*05:01; 61 nM on DPB1*02:01.
With `CC[C@H](C)[C@H](NC(=O)[C@H](CC(C)C)NC(=O)[C@H](CO)NC(=O)[C@@H](NC(=O)[C@@H](NC(=O)[C@@H](N)CCCCN)[C@@H](C)CC)C(C)C)C(=O)N[C@@H](CCCCN)C(=O)N[C@@H](CC(N)=O)C(=O)N[C@@H](CC(C)C)C(=O)N[C@@H](CC(C)C)C(=O)N[C@H](C(=O)N[C@@H](C)C(=O)N[C@@H](CC(C)C)C(=O)N[C@@H](CCCCN)C(=O)N[C@@H](CC(=O)O)C(=O)O)C(C)C` [Peptide 3563.0028], the concentration for half-maximal inhibition (IC50) on DRB5*01:01 came to 14 nM; on DQB1*05:01, 124 nM; at DQB1*06:02, 1460 nM; on DPB1*04:01 it was 78 nM; on DPB1*14:01, 1800 nM; on DPB1*04:02, 155 nM. This molecule also yielded an IC50 at DPB1*02:01 of 657 nM.
ovalbumin: in the assay with atherosclerotic plaque, the “atherosclerotic plaque in the aortic root by serial sections” value is reported as “not” and the “atherosclerotic plaque in the whole aorta by en face staining” value is reported as “not”.
